Assays:
VIM-2 = biological target: T1, VIM-2 (Escherichia coli, UniProt Q5U7L7); assay: Inhibition of IPM hydrolysis by purified VIM-2, Ki by Lineweaver-Burk plots; assay type: biochemical; settings: IPM as substrate, competitive model, mean of three replicates; read-out: Inhibition constant Ki VIM-2
T1 construct: made in house
Procedure: (§1) MBL (10 nM) was mixed with the inhibitors and incubated for 5 min at 30°C. IPM was added to reach a concentration of 150 μM, and the velocity of IPM hydrolysis was monitored at 298 nm. The assay was performed at 30°C using 10 mM HEPES (pH 7.5) buffer containing 200 mM NaCl and 50 μg/ml bovine serum albumin (BSA) for IMP-1, NDM-1, VIM-2, and SMB-1. For SFH-1 and L1, another 10 mM HEPES (pH 7.5) buffer containing 200 mM NaCl, 20 μM ZnSO4, and 50 μg/ml BSA was used.
(§2) Initial velocities (vo) were measured after varying the concentrations of IPM and inhibitors, and inverse velocities (1/vo) were plotted against inverse IPM concentrations […]. Lineweaver-Burk plots were constructed to obtain the inhibition constant (Ki) with the competitive inhibition model using the SigmaPlot 13 suite (Hulinks).

IMP-1 = biological target: T2, IMP-1 (Serratia marcescens, UniProt P52699); assay: Inhibition of IPM hydrolysis by purified IMP-1, Ki by Lineweaver-Burk plots; assay type: biochemical
T2 construct: made in house
T2 sequence (P52699 19-246 limits assumed): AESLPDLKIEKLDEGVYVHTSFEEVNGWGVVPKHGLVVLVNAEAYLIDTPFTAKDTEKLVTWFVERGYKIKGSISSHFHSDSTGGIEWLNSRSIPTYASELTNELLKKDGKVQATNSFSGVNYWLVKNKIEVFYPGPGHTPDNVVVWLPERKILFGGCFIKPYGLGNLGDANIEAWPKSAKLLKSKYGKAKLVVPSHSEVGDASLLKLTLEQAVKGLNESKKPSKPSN
Procedure: as §1, §2

NDM-1 = biological target: T3, NDM-1 (Klebsiella pneumoniae, UniProt C7C422); assay: Inhibition of IPM hydrolysis by purified NDM-1, Ki by Lineweaver-Burk plots; assay type: biochemical; settings: IPM as substrate, competitive model, mean of three replicates; read-out: Inhibition constant Ki NDM-1
T3 construct: made in house
T3 sequence (C7C422 29-270 limits assumed): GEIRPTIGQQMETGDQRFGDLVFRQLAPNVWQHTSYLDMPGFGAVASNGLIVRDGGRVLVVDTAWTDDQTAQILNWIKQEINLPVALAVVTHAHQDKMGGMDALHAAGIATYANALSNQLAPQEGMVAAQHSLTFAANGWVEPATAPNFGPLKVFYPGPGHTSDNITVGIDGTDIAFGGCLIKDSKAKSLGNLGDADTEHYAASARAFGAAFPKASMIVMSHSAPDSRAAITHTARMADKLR
Procedure: as §1, §2

[1] = test system: IMP producers rather than NDM/VIM producers; settings: cited from earlier work
E. coli DH5α/pBC-VIM-2 = assay: Susceptibility and checkerboard testing, VIM-2-producing E. coli; assay type: cell-based, Escherichia coli; settings: Escherichia coli, read-out: MIC of CAZ without inhibitor
Procedure: MICs were determined via the microdilution method according to the CLSI guidelines ([38]). In brief, 5 × 10^4 bacterial cells were inoculated in 100 μl of cation-adjusted Mueller-Hinton broth (Becton, Dickinson and Company, Franklin Lakes, NJ) containing the β-lactams and appropriately diluted inhibitors. The final concentration of DMSO was maintained at 2% in the assays. The tested plates were then incubated at 35°C for 16 to 20 h. The MIC value was determined as the lowest concentration of tested β-lactams where no bacterial growth was visibly observed. The optical density at 600 nm (OD600) value was measured using a plate reader for drawing the heat maps. The FIC index value was calculated using the following equation: FIC index=MIC of β-lactam with inhibitor/MIC of β-lactam alone+MIC of inhibitor with β-lactam/MIC of inhibitor alone
Unless noted otherwise, the FIC index was defined as the lowest value among all obtained values. The synergistic effect was defined as the effect observed when the FIC index value was ≤0.5.

SMILES | Ki (VIM-2) [nM] | Ki (IMP-1) [nM] | Ki (NDM-1) [nM] | Selectivity between IMP and NDM/VIM producers [1] | MIC (E. coli DH5α/pBC-VIM-2) [µg/mL]
CCc1oc(CC)c(S(N)(=O)=O)c1C(=O)O [Compound 4, 2,5-diethyl-4-sulfamoylfuran-3-carboxylic acid] | 1010 | 300 | 920 | – | –
Cc1c(C(=O)O)c(S(N)(=O)=O)c(C)n1-c1ccccc1 [Compound 10, 2,5-dimethyl-1-phenyl-4-sulfamoylpyrrole-3-carboxylic acid] | 20800 | 7510 | 10200 | – | –
O=C(O)/C(S)=C/c1c(Cl)ccc(Cl)c1Cl [ML302F] | – | – | – | superior for IMP | –
Cc1c(C(=O)O)c(S(N)(=O)=O)c(C)n1C1CC1 [Compound 9, 1-cyclopropyl-2,5-dimethyl-4-sulfamoylpyrrole-3-carboxylic acid] | 1700 | 14100 | 4850 | – | –
Cc1c(C(=O)O)c(S(N)(=O)=O)c(C)n1C [Compound 7, 1,2,5-trimethyl-4-sulfamoylpyrrole-3-carboxylic acid] | 420 | 1230 | 9080 | – | –
O=C(O)c1ncsc1NS(=O)(=O)c1cccnc1 [ANT431] | – | – | – | superior for NDM/VIM | –
CC/C(C(=O)[O-])=C(\CC)C(=O)[O-].[Na+].[Na+] [ME1071] | – | – | – | superior for IMP | –
N[C@H](CN[C@H](CN[C@@H](CC(=O)O)C(=O)O)C(=O)O)C(=O)O [AMA, Aspergillomarasmine A] | – | – | – | superior for NDM/VIM | –
CC(C)(O/N=C(\C(=O)N[C@@H]1C(=O)N2C(C(=O)[O-])=C(C[n+]3ccccc3)CS[C@H]12)c1csc(N)n1)C(=O)O [CAZ, ceftazidime, reference compound] | – | – | – | – | 16
NCCN[C@H]1CC[C@H](CC(=O)N[C@H]2Cc3cccc(C(=O)O)c3OB2O)CC1 [VNRX-5133, taniborbactam] | – | – | – | superior for NDM/VIM | –
CCCc1oc(CCC)c(S(N)(=O)=O)c1C(=O)O [Compound 5, 2,5-dipropyl-4-sulfamoylfuran-3-carboxylic acid] | 460 | 380 | 510 | – | –
NS(=O)(=O)c1c(C2CCCC2)oc(C2CCCC2)c1C(=O)O [Compound 6, 2,5-dicyclopentyl-4-sulfamoylfuran-3-carboxylic acid] | 760 | 1270 | 250 | – | –
NS(=O)(=O)c1sc(Cl)cc1C(=O)O [Compound 2] | 2290 | 19100 | 19300 | – | –
NS(=O)(=O)c1sccc1C(=O)O [Compound 1] | 15500 | 34100 | 7690 | – | –
CN1CCN(NC(=O)CN2C(=O)/C(=C/c3c(Cl)ccc(Cl)c3Cl)SC2=S)CC1 [ML302] | – | – | – | superior for IMP | –

Reference: publication PMC7078479, “Sulfamoyl Heteroarylcarboxylic Acids as Promising Metallo-β-Lactamase Inhibitors for Controlling Bacterial Carbapenem Resistance” (mBio, 2020)
